The NIST ThermoML archive (doi:10.1021/je300217x)

Conditions: Liquid, Closed cell (Static) method

FC1(F)C(F)(F)C(F)(F)C1(F)F [octafluorocyclobutane]
Conditions | vapor or sublimation pressure [kPa]
247.9 K | 39
248.25 K | 41
248.3 K | 40
253.38 K | 51
263 K | 81
265.93 K | 92
267.92 K | 99
269.89 K | 110
272.9 K | 122
277.87 K | 148
282.9 K | 180
287.89 K | 216
292.89 K | 257
303.37 K | 362
313.09 K | 486
322.53 K | 635
335.34 K | 889
342.37 K | 1055
352.36 K | 1329

FC(F)=C(F)F [tetrafluoroethene]
Conditions | vapor or sublimation pressure [kPa]
248.2 K | 864
248.3 K | 866
253.34 K | 1017
263 K | 1357
263.18 K | 1367
273.14 K | 1804
282.9 K | 2330
283.19 K | 2340
